Source: US20150175599A1, “FAAH Inhibitors” (Ironwood Pharmaceuticals, Inc., priority 2010, published 2015)

Experiments:
FAAH = biological target: T1, FAAH (Homo sapiens, UniProt O00519); test: FAAH inhibition, human brain membrane homogenate assay; type: biochemical; details: human brain homogenate; average activity; read-out: Human brain Extract FAAH IC50
T1 construct: Reactions were initiated by adding 12.5 μg of brain microsome; tissue ABS, Inc; host or cells: human brain cerebral cortex, membrane/microsome fraction pooled from 3 donors
T1 sequence (O00519 1-579): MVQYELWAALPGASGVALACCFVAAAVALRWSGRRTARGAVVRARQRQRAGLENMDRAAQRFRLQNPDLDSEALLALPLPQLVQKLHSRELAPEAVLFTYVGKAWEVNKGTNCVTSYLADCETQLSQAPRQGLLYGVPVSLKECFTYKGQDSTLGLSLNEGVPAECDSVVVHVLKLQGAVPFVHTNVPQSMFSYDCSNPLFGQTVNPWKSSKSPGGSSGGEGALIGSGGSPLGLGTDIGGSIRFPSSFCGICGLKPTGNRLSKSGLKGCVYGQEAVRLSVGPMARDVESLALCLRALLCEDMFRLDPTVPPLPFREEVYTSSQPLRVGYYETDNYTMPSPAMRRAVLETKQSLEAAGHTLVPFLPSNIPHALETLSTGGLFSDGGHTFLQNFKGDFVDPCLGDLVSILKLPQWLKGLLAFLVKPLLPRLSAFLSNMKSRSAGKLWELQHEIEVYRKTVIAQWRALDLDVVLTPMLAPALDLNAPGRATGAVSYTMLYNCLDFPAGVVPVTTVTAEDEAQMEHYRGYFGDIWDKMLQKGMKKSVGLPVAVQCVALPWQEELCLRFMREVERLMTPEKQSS

human FAAH-1 = biological target: T2, human FAAH-1 (Homo sapiens, UniProt O00519); test: Whole cell anandamide hydrolysis assay (HeLa clone 5c5 transfected with human FAAH-1); type: cell-based; details: HeLa clone 5c5 expressing human FAAH-1; read-out: human FAAH whole cell IC50
T2 sequence (O00519 1-579): T1 sequence (O00519 1-579)
Description: FAAH activity was assayed in whole cells using methods disclosed previously (Maccarone et al., 1998 J Biol. Chem. 273:32332 and Bisogno et al., 1997 J Biol. Chem. 272:3315). In addition to the cell lines described in Maccarone et al. and Bisogno et al., MCF7 (ATCC designation HTB-22) and T84 (ATCC designation CCL-248) cell lines were also used in these assays.
cDNA expression clone for human FAAH-1 (in pcDNA3 vector) (Genbank Accession U82535; obtained from Benjamin Cravatt, Scripps Research Institute, La Jolla, Calif.) was linearized by digestion with BglII (New England Biolabs) and transfected by calcium phosphate into human HeLa cells (ATCC catalog #CCL-2). […] Following transfection, a stable HeLa-derived clone, designated 5c5, was isolated by single colony purification and expanded and maintained in modified Eagles medium (MEM; VWR catalog #45000-300) containing 10% fetal bovine serum (FBS), 2 mM L-glutamine, and 0.5 mg/mL G-418 (Sigma catalog #G5013).
Clone 5c5 (50,000 cells in 150 μL) was seeded into 96-well plates and incubated overnight (5% CO2, 37° C.). Media was carefully replaced with 180 μL DMEM/F12 medium (VWR catalog #45000-350) containing 15 mM HEPES, pH 7.4 and 0.1% fatty acid free BSA (Sigma catalog #A0281). Then, 2 μL of 100× desired final concentrations of certain exemplary compounds described herein were made up in DMSO, added to wells containing cells, and plates were incubated at 37° C. for 10 min. Next, 20 μL of 5 μM anandamide (Cayman catalog #90050) spiked with 8 μCi of anandamide-(ethanolamine-1-[^3H]) (American Radiolabeled Chemicals, Inc., catalog #ART 626) was added to the cells and the plates were incubated for an additional 15 min at 37° C. The reactions were terminated by chilling the plates on ice and adding 20 μL of 0.5M of potassium phosphate buffer (adjusted to pH 2.1 with phosphoric acid).
The acidified reactions were transferred to 96-well filter plates (0.25 mL capacity/well, 1.2 micron glass fiber pre-filter packed above 0.65 micron pore-size PVDF membrane, Millipore catalog MSFCN6B50) containing 25 μL charcoal (neutral activated carbon, Fisher Scientific catalog C170-500) per well. Prior to the assay, charcoal was measured and loaded onto the plate using an aluminum 96-well column loading device (Millipore catalog MACL09625). The filter plate was assembled over an empty 96-well plate (Costar) using a centrifuge alignment frame (Millipore catalog MACF09604) to allow for collection of the filtrate in the receiver plate. The charcoal glass-fiber filter plates were pre-washed with methanol by centrifugation 650×g for 10 min). Next, 80 μL of water was added to the wells of the pre-washed 96 well charcoal filter plate. Then, 90 μL of the acidified reaction mixture was added to the water in the wells of the charcoal plate. The samples were centrifuged as above. The substrate remained bound to the charcoal, whereas the [^3H]-ethanolamine product formed flowed through and was transferred to the microplates containing scintillation cocktail and quantified in a micro-plate scintillation counter (Perkin-Elmer Microbeta). Control reactions with either no cells or cells treated with DMSO alone were performed in triplicate and used to define background (no cells) and 100% activity (DMSO alone).
Following subtraction of background radioactivity, data were expressed as percent inhibition relative to 100% activity and fit with a nonlinear regression curve using GraphPad Prism Software (GraphPad Software Inc). IC50 values were calculated from the resulting dose-response curves constrained at top and bottom to 100% and 0%, respectively.

Compound	IC50 (FAAH) [nM]	IC50 (human FAAH-1) [nM]
COc1cc(NC(=O)C(=O)c2c(C)n(Cc3ccc(Cl)cn3)c3ncc(C)cc23)ccn1 [Compound 75, (1-((5-chloropyridin-2-yl)methyl)-2,5-dimethyl-1H-pyrrolo[2,3-b]pyridin-3-yl)-N-(2-methoxypyridin-4-yl)-2-oxoacetamide]	< 100	< 100
COc1ccc2c(c1)c(C(=O)C(=O)Nc1ccnc(OC)n1)c(C)n2Cc1ccc(Cl)cc1 [Compound 46, 2-(1-(4-chlorobenzyl)-5-methoxy-2-methyl-1H-indol-3-yl)-N-(2-methoxypyrimidin-4-yl)-2-oxoacetamide]	< 100	< 100
CNc1ccc2c(c1)c(C(=O)C(=O)Nc1ccnc(OC)c1)c(C)n2Cc1ccc(Cl)cc1 [Compound 9, 2-(1-(4-chlorobenzyl)-2-methyl-5-(methylamino)-1H-indol-3-yl)-N-(2-methoxypyridin-4-yl)-2-oxoacetamide]	< 100	< 100
COc1ccc2c(c1)c(C(=O)C(=O)Nc1ccnc(OC)c1)c(C)n2Cc1ccncc1 [Compound 16, 2-(5-methoxy-2-methyl-1-(pyridin-4-ylmethyl)-1H-indol-3-yl)-N-(2-methoxypyridin-4-yl)-2-oxoacetamide]	100 to 1000	< 100
COc1cnc2c(c1)c(C(=O)C(=O)Nc1ccnc(OC)c1)c(C)n2Cc1ncc(Cl)cc1Cl [Compound 29, 2-(1-((3,5-dichloropyridin-2-yl)methyl)-5-methoxy-2-methyl-1H-pyrrolo[2,3-b]pyridin-3-yl)-N-(2-methoxypyridin-4-yl)-2-oxoacetamide]	< 100	< 100
COc1cc(NC(=O)C(=O)c2c(C)n(Cc3ccc(Cl)cc3)c3cc(F)c(OC)cc23)ccn1 [Compound 72, 2-(1-(4-chlorobenzyl)-6-fluoro-5-methoxy-2-methyl-1H-indol-3-yl)-N-(2-methoxypyridin-4-yl)-2-oxoacetamide]	< 100	< 100
COc1cc(NC(=O)C(=O)c2c(C)n(Cc3ncc(Cl)cc3F)c3cc(Cl)c(OC)cc23)ccn1 [Compound 97, 2-(6-chloro-1-((5-chloro-3-fluoropyridin-2-yl)methyl)-5-methoxy-2-methyl-1H-indol-3-yl)-N-(2-methoxypyridin-4-yl)-2-oxoacetamide]	< 100	< 100
COc1ccc2c(C(=O)C(=O)Nc3ccnc(OC)c3)c(C)n(Cc3ccc(Cl)cc3)c2c1 [Compound 48, 2-(1-(4-chlorobenzyl)-6-methoxy-2-methyl-1H-indol-3-yl)-N-(2-methoxypyridin-4-yl)-2-oxoacetamide]	< 100	< 100
COc1ccc(Cn2c(C)c(C(=O)C(=O)Nc3ccnc(OC)c3)c3cc(OC)c(C)cc32)nc1 [Compound 96, 2-(5-methoxy-1-((5-methoxypyridin-2-yl)methyl)-2,6-dimethyl-1H-indol-3-yl)-N-(2-methoxypyridin-4-yl)-2-oxoacetamide]	< 100	< 100
COc1cnc2c(c1)c(C(=O)C(=O)Nc1ccnc(OC)c1)c(C)n2Cc1ccc(Cl)cc1Cl [Compound 42, 2-(1-(2,4-dichlorobenzyl)-5-methoxy-2-methyl-1H-pyrrolo[2,3-b]pyridin-3-yl)-N-(2-methoxypyridin-4-yl)-2-oxoacetamide]	< 100	< 100
COc1cc(NC(=O)C(=O)c2c(C)n(Cc3ccc(Cl)cn3)c3ccc(N)cc23)ccn1 [Compound 65, 2-(5-amino-1-((5-chloropyridin-2-yl)methyl)-2-methyl-1H-indol-3-yl)-N-(2-methoxypyridin-4-yl)-2-oxoacetamide]	100 to 1000	< 100
COc1ccc2c(c1)c(C(=O)C(=O)Nc1cc(Cl)nc(OC)c1)c(C)n2Cc1ccc(Cl)cc1 [Compound 47, N-(2-chloro-6-methoxypyridin-4-yl)-2-(1-(4-chlorobenzyl)-5-methoxy-2-methyl-1H-indol-3-yl)-2-oxoacetamide]	< 100	< 100
COc1cnc2c(c1)c(C(=O)C(=O)Nc1ccnc(OC)c1)c(C)n2Cc1ccc(Cl)cc1 [Compound 38, 2-(1-(4-chlorobenzyl)-5-methoxy-2-methyl-1H-pyrrolo[2,3-b]pyridin-3-yl)-N-(2-methoxypyridin-4-yl)-2-oxoacetamide]	< 100	< 100
COc1ccc2c(c1)c(C(=O)C(=O)Nc1cc(OC)ncc1F)c(C)n2Cc1ccc(Cl)cc1 [Compound 54, 2-(1-(4-chlorobenzyl)-5-methoxy-2-methyl-1H-indol-3-yl)-N-(5-fluoro-2-methoxypyridin-4-yl)-2-oxoacetamide]	< 100	< 100
COc1cnc2c(c1)c(C(=O)C(=O)Nc1ccnc(OC)c1)c(C)n2Cc1ccc(Cl)cn1 [Compound 41, 2-(1-((5-chloropyridin-2-yl)methyl)-5-methoxy-2-methyl-1H-pyrrolo[2,3-b]pyridin-3-yl)-N-(2-methoxypyridin-4-yl)-2-oxoacetamide]	< 100	< 100
COc1cc(NC(=O)C(=O)c2c(C)n(Cc3ccc(Cl)cc3)c3ccc(O)cc23)ccn1 [Compound 2, 2-(1-(4-chlorobenzyl)-5-hydroxy-2-methyl-1H-indol-3-yl)-N-(2-methoxypyridin-4-yl)-2-oxoacetamide]	< 100	< 100
COc1cc(NC(=O)C(=O)c2c(C)n(Cc3ccc(Cl)cc3)c3ccc(OC)c(OC)c23)ccn1 [Compound 56, 2-(1-(4-chlorobenzyl)-4,5-dimethoxy-2-methyl-1H-indol-3-yl)-N-(2-methoxypyridin-4-yl)-2-oxoacetamide]	100 to 1000	100 to 1000
COCc1ccc2c(c1)c(C(=O)C(=O)Nc1ccnc(OC)c1)c(C)n2Cc1ccc(Cl)cc1 [Compound 11, 2-(1-(4-chlorobenzyl)-5-(methoxymethyl)-2-methyl-1H-indol-3-yl)-N-(2-methoxypyridin-4-yl)-2-oxoacetamide]	< 100	< 100
COc1cc(NC(=O)C(=O)c2c(C)n(Cc3ccc(Cl)cc3)c3ccc(C(=O)N(C)C)cc23)ccn1 [Compound 6, 1-(4-chlorobenzyl)-3-(2-(2-methoxypyridin-4-ylamino)-2-oxoacetyl)-N,N,2-trimethyl-1H-indole-5-carboxamide]	100 to 1000	100 to 1000
COc1ccc2c(c1)c(C(=O)C(=O)Nc1ccnc(OC)c1Cl)c(C)n2Cc1ccc(Cl)cc1 [Compound 52, N-(3-chloro-2-methoxypyridin-4-yl)-2-(1-(4-chlorobenzyl)-5-methoxy-2-methyl-1H-indol-3-yl)-2-oxoacetamide]	> 10000	100 to 1000
